Assay results from doi:10.1101/706168v1 (biorxiv, 2019).

How the values were obtained:
Assay in all cases: cell-based
Kv1.5 = Kv1.5 (Homo sapiens, UniProt P22460)
Kv4.3 = target: T1, Kv4.3 (Homo sapiens, UniProt Q9UK17)
T1 sequence (Q9UK17 1-655): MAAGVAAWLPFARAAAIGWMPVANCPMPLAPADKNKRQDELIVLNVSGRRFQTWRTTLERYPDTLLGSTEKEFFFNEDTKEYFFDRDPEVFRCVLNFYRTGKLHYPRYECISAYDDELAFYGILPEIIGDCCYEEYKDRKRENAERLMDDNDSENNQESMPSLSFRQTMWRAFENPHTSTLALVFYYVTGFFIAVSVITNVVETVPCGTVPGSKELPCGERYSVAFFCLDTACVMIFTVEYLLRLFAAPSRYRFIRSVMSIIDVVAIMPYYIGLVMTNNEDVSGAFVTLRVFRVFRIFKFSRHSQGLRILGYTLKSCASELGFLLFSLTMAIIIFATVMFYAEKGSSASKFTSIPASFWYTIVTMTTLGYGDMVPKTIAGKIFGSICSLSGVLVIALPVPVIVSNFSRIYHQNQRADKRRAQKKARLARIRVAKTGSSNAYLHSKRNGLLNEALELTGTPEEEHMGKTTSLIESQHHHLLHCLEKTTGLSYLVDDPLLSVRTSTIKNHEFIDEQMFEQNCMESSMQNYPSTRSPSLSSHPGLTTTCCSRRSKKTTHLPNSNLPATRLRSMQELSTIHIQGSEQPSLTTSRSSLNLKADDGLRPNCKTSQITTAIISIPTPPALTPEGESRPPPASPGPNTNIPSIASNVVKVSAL

TRPC5 = target: T2, TRPC5 (Homo sapiens, UniProt Q9UL62)
T2 sequence (Q9UL62 1-973): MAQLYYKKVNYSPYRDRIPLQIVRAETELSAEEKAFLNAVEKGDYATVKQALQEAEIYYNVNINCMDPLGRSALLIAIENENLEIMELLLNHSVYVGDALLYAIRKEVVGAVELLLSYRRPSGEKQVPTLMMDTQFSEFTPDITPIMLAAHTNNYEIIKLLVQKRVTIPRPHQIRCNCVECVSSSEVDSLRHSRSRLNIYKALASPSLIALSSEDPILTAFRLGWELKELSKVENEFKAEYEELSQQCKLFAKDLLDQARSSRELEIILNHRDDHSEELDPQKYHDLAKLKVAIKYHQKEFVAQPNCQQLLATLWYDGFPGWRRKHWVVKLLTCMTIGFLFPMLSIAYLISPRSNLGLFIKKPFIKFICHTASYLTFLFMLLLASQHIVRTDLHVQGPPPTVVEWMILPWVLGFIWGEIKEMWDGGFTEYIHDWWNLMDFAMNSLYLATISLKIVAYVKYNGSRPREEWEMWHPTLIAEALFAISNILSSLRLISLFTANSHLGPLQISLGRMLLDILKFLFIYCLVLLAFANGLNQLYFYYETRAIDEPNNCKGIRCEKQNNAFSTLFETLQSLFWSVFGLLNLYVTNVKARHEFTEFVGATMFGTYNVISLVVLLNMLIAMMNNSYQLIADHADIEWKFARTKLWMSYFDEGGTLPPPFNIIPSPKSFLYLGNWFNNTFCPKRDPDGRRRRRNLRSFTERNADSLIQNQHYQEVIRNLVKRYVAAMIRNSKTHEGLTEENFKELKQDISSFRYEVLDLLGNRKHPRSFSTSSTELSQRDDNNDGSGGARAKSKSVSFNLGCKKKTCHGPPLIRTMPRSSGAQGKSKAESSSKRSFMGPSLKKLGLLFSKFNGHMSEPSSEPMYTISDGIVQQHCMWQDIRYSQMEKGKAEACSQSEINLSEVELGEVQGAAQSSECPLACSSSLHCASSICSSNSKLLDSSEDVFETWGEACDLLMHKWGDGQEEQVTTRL

Kir3.1/3.4 = target: T3, Kir3.1/3.4 (Homo sapiens, UniProt P48544+P48549)
T3 sequence (P48544 1-419): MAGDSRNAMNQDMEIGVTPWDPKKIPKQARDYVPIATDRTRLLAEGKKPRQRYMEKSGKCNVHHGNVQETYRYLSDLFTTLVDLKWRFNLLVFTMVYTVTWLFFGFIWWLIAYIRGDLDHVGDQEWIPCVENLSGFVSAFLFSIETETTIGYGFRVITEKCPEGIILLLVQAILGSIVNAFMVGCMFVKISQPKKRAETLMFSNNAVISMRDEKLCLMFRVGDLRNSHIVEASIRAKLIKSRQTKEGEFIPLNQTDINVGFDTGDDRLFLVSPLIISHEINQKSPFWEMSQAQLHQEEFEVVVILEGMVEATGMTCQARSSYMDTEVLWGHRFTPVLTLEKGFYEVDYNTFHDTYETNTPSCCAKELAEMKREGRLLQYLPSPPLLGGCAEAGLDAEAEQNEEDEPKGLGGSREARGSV
T3 sequence (P48549 1-501): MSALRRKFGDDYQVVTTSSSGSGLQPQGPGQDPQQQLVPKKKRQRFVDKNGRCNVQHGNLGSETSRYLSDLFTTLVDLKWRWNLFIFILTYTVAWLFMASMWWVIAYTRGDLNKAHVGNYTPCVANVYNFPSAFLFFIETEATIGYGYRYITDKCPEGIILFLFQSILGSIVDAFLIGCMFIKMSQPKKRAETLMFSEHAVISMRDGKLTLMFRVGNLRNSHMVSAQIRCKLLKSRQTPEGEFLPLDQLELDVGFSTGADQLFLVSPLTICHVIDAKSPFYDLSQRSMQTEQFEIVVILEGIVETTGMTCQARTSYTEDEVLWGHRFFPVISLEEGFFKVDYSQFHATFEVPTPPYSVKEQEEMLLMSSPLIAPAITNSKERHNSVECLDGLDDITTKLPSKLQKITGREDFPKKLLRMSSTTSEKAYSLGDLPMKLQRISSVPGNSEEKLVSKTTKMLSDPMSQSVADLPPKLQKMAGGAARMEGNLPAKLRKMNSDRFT

TWIK2 = target: T4, TWIK2 (Homo sapiens, UniProt Q9Y257)
T4 sequence (Q9Y257 1-313): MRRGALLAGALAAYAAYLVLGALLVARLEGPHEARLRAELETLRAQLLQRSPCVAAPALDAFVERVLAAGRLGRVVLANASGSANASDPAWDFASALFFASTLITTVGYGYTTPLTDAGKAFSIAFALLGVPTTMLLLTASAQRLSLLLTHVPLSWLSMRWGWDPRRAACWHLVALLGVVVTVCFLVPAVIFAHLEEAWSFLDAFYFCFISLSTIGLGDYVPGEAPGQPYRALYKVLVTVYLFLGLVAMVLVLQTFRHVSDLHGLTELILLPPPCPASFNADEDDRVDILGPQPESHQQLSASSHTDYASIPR

Chain of Kv1.5 (P22460 whole entry): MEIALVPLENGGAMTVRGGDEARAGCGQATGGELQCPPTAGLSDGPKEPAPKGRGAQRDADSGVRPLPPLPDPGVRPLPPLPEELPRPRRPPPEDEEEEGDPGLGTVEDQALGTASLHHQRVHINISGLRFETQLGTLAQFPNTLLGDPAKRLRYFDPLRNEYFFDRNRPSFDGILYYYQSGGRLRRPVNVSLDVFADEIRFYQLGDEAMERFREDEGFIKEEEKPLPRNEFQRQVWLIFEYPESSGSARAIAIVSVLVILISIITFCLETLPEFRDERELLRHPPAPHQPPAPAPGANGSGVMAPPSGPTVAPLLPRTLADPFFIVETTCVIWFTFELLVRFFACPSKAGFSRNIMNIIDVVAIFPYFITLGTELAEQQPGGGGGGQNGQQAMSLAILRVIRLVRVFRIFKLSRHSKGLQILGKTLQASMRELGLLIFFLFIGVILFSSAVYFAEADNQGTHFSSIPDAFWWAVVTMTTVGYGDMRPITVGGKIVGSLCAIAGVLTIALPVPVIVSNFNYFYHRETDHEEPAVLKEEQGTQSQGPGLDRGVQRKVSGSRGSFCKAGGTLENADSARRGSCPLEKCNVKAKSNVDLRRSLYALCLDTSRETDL

IC50 (Kv1.5): 19 µM | IC50 (Kv4.3): > 10 µM | IC50 (TRPC5): > 30 µM | IC50 (Kir3.1/3.4): > 30 µM | IC50 (TWIK2): > 30 µM
SMILES: O=C(c1ccccc1F)N1CCN(Cc2c(-c3ccc(Br)cc3)nc3ccccn23)CC1 [BAY 1000493, (4-{[2-(4-bromophenyl)imidazo[1,2-a]pyridin-3-yl]methyl}vpiperazin-1-yl)(2-fluorophenyl)methanone]
